Among the data in ChEMBL document CHEMBL5696442, “Discovery of type II inhibitors of TGFβ-activated kinase 1 (TAK1) and mitogen-activated protein kinase kinase kinase kinase 2 (MAP4K2)” (J Med Chem, 2015) are inhibition, residual activity and percent of control values, retold here.

Activity calls are given as the source filed them. The rule behind the calls is not given here.

Assay [1] deals with Receptor tyrosine-protein kinase erbB-4 (Homo sapiens) (UniProt Q15303). The assay can be described thus: Inhibition of ERBB4 (unknown origin) at 1 uM by Ambit Kinomescan binding assay relative to control.
The target of assay [2] is Serine/threonine-protein kinase 38-like (Homo sapiens) (UniProt Q9Y2H1). Briefly: Inhibition of NDR2 Lys2 labeling site in human A-375 cells at 5 uM by KiNativ Profiling analysis relative to control. The format is cell-based.
Serine/threonine-protein kinase 38-like (Homo sapiens), sequence (Q9Y2H1 2-464 limits assumed): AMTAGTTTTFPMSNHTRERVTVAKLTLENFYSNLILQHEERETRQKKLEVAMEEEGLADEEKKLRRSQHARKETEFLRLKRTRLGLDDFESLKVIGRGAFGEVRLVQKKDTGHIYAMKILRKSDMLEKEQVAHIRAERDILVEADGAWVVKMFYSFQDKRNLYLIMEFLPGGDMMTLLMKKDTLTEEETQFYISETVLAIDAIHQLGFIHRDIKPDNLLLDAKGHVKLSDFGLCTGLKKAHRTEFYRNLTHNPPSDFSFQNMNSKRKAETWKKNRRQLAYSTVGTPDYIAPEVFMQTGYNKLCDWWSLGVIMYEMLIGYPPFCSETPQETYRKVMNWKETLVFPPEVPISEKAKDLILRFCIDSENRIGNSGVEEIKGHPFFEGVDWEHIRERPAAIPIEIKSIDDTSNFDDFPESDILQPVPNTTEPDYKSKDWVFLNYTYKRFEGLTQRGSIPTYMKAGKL
The target of assay [3] is Calcium/calmodulin-dependent protein kinase type 1D (Homo sapiens) (UniProt Q8IU85). Briefly: Inhibition of CAMK1D (unknown origin) at 1 uM by Ambit Kinomescan binding assay relative to control; values are per cent of control.
Assay [4] concerns the target T1, Serine/threonine-protein kinase ULK3 (Homo sapiens) (UniProt Q6PHR2).
T1 sequence (whole entry): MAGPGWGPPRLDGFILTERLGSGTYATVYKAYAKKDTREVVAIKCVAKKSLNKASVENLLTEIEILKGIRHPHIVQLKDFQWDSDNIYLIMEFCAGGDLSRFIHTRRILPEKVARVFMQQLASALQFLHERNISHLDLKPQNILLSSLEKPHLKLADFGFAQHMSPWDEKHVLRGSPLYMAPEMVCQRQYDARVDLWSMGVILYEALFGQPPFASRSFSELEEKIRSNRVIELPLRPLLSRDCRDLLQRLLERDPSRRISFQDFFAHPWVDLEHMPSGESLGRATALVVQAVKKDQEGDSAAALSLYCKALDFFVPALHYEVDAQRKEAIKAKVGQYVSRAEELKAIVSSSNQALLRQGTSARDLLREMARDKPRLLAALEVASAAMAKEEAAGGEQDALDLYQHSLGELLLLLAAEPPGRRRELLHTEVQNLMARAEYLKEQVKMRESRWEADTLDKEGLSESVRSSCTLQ
Briefly: Inhibition of ULK3 (unknown origin) at 10 uM by Ambit Kinomescan binding assay relative to control; values are per cent of control.

For assay [5], the target named is Cyclin-dependent kinase 2 (Homo sapiens) (UniProt P24941). Briefly: Inhibition of CDK2 K2 labeling site in human Huh-7 cells at 1 uM by KiNativ Profiling analysis relative to control. Type of assay: cell-based.
Assay [6] deals with Serine/threonine-protein kinase 38 (Homo sapiens) (UniProt Q15208). Briefly: Inhibition of NDR1 ACT labeling site in human A-375 cells at 0.5 uM by KiNativ Profiling analysis relative to control. The format is cell-based.
The target of assay [7] is Casein kinase I isoform delta (Homo sapiens) (UniProt P48730). Briefly: Inhibition of CK1 delta K2 labeling site in human Huh-7 cells at 1 uM by KiNativ Profiling analysis relative to control. The format is cell-based.
The target in assay [8] is Tyrosine-protein kinase CSK (Homo sapiens, UniProt P41240). Briefly: Inhibition of CSK ACT labeling site harbouring VSDFGLTKEASSTQDTGK in human A-375 cells at 0.5 uM by KiNativ Profiling analysis relative to control. The format is cell-based.
Assay [9] deals with Cyclin-dependent kinase 14 (Homo sapiens) (UniProt O94921). The assay can be described thus: Inhibition of PFTAIRE1 Lys1 labeling site in human A-375 cells at 5 uM by KiNativ Profiling analysis relative to control.
Assay [10] addresses Wee1-like protein kinase (Homo sapiens) (UniProt P30291). Briefly: Inhibition of Wee1 K2 labeling site in human Huh-7 cells at 1 uM by KiNativ Profiling analysis relative to control. Type of assay: cell-based.
Another assay concerns RAW. Briefly: Inhibition of LPS induced p105 phosphorylation in mouse RAW cells preincubated for 1 hr followed by LPS stimulation and measured after 30 mins by Western blot analysis. As to conditions: dose 0.01-10 µM. The format is functional, cell-based. In general terms: Immunoblotting shows a protein as a band on a membrane.
Assay [11] addresses Ribosomal protein S6 kinase alpha-2 (Homo sapiens) (UniProt Q15349). Briefly: Inhibition of N-terminal RPS6KA2 kinase domain 1 (unknown origin) at 10 uM by Ambit Kinomescan binding assay.
Assay [12] addresses Microtubule-associated serine/threonine-protein kinase 2 (Homo sapiens) (UniProt Q6P0Q8). Briefly: Inhibition of MAST2 Lys2 labeling site in human A-375 cells at 0.5 uM by KiNativ Profiling analysis relative to control. The format is cell-based.
Assay [13] concerns the target Serine/threonine-protein kinase Nek5 (Homo sapiens) (UniProt Q6P3R8). Briefly: Inhibition of NEK5 (unknown origin) at 10 uM by Ambit Kinomescan binding assay.
The target in assay [14] is Ribosomal protein S6 kinase alpha-3 (Homo sapiens) (UniProt P51812). Briefly: Inhibition of RSK2 Domain 2 K2 labeling site harbouring DLKPSNILYVDESGNPESIR in human Huh-7 cells at 10 uM by KiNativ Profiling analysis relative to control. Type of assay: cell-based.
Ribosomal protein S6 kinase alpha-3 (Homo sapiens), sequence (P51812 whole entry, the tested form may be a part): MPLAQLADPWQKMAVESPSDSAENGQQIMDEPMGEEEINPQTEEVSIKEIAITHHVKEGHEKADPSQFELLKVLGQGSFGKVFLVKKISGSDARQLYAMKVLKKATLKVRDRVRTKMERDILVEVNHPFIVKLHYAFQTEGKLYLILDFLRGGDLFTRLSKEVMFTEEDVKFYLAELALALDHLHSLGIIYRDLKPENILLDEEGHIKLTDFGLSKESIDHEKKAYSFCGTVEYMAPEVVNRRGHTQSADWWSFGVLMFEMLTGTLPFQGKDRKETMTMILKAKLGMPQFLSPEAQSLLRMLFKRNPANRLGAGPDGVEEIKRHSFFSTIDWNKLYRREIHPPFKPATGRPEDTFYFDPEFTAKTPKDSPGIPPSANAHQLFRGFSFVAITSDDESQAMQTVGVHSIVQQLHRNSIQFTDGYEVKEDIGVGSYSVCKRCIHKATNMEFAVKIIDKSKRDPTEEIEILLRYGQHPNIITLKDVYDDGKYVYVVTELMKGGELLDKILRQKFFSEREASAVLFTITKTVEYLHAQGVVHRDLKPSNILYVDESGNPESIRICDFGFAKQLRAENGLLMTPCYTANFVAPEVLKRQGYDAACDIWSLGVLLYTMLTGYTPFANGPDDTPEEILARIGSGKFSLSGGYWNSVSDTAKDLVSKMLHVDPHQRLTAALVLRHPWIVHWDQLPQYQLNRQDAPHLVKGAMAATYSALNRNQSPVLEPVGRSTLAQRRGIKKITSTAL
Assay [15] concerns the target ALK tyrosine kinase receptor (Homo sapiens) (UniProt Q9UM73). The assay can be described thus: Inhibition of ALK (unknown origin) at 10 uM by Ambit Kinomescan binding assay relative to control; values are per cent of control.
The target of assay [16] is Serine/threonine-protein kinase N2 (Homo sapiens) (UniProt Q16513). Briefly: Inhibition of PKN2 Lys2 labeling site in human Huh-7 cell lysate at 1 uM by KiNativ Profiling analysis relative to control. Type of assay: subcellular.
Assay [17] addresses Ribosomal protein S6 kinase alpha-3 (Homo sapiens) (UniProt P51812). The assay can be described thus: Inhibition of RSK2 domain2 ACT labeling site in human Huh-7 cell lysate at 1 uM by KiNativ Profiling analysis relative to control. Type of assay: subcellular.
In assay [18] the target is Putative phosphatidylinositol 4-kinase alpha-like protein P2 (Homo sapiens) (UniProt A4QPH2). Briefly: Inhibition of PI4KAP2 ATP labeling site in human Huh-7 cell lysate at 1 uM by KiNativ Profiling analysis relative to control. Type of assay: subcellular.
Putative phosphatidylinositol 4-kinase alpha-like protein P2 (Homo sapiens), sequence (A4QPH2 whole entry): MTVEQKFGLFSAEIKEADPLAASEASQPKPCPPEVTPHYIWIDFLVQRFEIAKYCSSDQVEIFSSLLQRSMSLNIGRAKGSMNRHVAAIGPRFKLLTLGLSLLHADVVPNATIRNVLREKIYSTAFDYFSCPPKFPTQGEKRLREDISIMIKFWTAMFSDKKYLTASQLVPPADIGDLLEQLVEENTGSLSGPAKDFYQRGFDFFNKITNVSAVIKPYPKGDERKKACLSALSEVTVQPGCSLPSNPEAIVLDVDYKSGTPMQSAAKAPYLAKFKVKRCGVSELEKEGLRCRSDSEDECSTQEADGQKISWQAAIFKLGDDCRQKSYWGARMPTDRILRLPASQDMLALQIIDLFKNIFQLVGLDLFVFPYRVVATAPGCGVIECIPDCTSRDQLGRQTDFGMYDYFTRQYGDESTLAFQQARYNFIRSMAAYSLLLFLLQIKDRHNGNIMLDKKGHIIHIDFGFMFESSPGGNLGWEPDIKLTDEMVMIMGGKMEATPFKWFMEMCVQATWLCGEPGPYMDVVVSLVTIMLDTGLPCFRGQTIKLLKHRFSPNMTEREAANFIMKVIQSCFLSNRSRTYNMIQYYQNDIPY
In assay [19] the target is Microtubule-associated serine/threonine-protein kinase 4 (Homo sapiens) (UniProt O15021). The assay can be described thus: Inhibition of MAST4 Lys2 labeling site in human Huh-7 cells at 1 uM by KiNativ Profiling analysis relative to control. The format is cell-based.
Microtubule-associated serine/threonine-protein kinase 4 (Homo sapiens), sequence (O15021 whole entry, the tested form may be a part): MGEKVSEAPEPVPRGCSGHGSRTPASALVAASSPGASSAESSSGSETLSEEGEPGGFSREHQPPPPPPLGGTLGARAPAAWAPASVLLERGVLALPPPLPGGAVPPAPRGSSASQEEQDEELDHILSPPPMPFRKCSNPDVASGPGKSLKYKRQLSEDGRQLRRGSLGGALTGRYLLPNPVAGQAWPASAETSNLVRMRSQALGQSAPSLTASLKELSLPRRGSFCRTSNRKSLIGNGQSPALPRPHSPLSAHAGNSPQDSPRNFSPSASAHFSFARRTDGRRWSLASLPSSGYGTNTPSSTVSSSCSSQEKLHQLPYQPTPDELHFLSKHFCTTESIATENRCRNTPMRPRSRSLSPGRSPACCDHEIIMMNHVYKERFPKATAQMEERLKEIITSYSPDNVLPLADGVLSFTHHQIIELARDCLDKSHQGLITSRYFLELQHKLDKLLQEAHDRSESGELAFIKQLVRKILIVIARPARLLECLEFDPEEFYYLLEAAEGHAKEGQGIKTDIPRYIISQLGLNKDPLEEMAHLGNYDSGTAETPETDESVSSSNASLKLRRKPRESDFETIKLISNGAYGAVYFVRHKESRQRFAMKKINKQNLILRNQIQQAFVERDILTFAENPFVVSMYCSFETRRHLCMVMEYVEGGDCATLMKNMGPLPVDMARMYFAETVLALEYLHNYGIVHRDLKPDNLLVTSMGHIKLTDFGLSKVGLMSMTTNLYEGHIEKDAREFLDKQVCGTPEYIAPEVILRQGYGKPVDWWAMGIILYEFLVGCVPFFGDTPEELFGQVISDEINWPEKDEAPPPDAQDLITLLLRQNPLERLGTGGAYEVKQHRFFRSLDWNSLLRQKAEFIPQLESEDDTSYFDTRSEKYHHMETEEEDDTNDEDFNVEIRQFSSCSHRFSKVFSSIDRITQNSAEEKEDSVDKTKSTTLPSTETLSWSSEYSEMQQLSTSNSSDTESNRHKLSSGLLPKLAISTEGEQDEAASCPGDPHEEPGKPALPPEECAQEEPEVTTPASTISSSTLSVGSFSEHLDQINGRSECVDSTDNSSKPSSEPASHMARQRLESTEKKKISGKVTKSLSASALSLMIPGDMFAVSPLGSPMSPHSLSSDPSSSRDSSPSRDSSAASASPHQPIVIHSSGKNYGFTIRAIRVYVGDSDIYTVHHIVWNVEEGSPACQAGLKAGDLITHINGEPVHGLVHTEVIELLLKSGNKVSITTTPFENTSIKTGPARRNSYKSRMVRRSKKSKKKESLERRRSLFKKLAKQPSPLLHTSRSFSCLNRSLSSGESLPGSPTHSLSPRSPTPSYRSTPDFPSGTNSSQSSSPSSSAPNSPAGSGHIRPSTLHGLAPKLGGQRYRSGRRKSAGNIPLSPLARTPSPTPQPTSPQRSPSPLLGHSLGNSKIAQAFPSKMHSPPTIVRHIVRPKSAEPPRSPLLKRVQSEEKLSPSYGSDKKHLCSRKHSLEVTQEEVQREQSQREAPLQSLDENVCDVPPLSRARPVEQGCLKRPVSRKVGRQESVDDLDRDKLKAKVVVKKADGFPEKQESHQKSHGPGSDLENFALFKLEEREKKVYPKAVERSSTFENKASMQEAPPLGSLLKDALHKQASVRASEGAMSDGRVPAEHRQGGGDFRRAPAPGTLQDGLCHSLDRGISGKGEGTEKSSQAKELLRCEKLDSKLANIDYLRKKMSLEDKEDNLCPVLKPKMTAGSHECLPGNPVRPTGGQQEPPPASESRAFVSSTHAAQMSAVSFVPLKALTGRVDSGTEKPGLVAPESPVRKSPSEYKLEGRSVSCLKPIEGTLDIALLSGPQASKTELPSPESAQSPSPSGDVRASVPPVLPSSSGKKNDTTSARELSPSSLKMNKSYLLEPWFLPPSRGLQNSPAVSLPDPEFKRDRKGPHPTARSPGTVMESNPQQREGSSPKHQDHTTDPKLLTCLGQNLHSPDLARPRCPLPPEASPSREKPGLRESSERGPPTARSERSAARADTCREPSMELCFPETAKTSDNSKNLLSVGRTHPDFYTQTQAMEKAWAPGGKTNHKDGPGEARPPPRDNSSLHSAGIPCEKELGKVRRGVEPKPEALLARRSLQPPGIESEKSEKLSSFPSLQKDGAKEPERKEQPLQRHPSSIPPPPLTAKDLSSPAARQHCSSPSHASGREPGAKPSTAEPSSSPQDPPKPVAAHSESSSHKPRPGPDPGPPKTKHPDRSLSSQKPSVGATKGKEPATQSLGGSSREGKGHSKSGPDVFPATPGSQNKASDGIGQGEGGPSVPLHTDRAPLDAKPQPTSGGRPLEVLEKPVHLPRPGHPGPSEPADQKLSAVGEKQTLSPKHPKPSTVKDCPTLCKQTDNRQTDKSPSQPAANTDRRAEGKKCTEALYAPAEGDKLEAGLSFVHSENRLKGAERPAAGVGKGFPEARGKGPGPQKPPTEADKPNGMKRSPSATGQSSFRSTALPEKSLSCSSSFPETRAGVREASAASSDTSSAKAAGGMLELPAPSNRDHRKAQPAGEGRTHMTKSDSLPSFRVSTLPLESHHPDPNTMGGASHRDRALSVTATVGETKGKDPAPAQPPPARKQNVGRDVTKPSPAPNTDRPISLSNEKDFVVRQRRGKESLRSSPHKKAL
In assay [20] the target is Ribosomal protein S6 kinase alpha-3 (Homo sapiens) (UniProt P51812). The assay can be described thus: Inhibition of RSK2 domain2 Lys2 labeling site harbouring TVEYLHAQGVVHRDLKPSNILYVDESGNPESIR in human Huh-7 cells at 1 uM by KiNativ Profiling analysis relative to control. Type of assay: cell-based.
For assay [21], the target named is T2, Dual specificity mitogen-activated protein kinase kinase 4 (Homo sapiens) (UniProt P45985).
T2 sequence (whole entry): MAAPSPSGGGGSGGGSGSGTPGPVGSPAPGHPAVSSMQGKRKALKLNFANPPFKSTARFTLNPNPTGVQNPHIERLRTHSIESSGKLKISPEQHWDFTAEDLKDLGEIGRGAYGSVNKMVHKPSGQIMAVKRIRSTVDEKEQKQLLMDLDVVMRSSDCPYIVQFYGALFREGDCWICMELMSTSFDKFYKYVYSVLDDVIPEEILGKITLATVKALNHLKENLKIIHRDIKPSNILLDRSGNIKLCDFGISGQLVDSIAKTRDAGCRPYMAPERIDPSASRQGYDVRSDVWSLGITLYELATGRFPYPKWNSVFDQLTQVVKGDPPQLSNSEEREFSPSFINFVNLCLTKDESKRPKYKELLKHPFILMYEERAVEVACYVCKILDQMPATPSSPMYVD
Briefly: Inhibition of MAP2K4 Lys2 labeling site in human Huh-7 cell lysate at 1 uM by KiNativ Profiling analysis relative to control. Type of assay: subcellular.

Serine/threonine-protein kinase Nek5 (Homo sapiens), sequence (Q6P3R8 whole entry, the tested form may be a part): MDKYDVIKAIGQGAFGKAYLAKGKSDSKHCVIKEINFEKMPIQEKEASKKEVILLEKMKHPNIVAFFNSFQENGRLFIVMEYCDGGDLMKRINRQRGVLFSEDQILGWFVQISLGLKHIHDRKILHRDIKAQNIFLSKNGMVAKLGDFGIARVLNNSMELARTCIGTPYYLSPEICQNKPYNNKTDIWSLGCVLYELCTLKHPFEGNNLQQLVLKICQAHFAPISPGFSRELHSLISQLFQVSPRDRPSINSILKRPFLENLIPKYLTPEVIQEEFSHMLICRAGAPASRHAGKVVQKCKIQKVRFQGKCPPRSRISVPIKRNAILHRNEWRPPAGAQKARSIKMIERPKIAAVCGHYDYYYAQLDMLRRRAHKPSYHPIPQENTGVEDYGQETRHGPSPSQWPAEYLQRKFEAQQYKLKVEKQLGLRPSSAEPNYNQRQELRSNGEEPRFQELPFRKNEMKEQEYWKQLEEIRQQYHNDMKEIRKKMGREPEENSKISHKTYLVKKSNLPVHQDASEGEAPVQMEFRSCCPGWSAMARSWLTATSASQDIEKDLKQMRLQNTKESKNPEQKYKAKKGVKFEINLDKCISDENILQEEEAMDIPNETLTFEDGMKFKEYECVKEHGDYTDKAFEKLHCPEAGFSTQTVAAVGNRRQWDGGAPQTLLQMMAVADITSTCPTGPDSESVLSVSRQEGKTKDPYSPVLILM

The inhibition is the drop in the measured response relative to a control, in per cent. In general, residual activity refers to the activity still measured, relative to the control. `CCN1CCN(Cc2ccc(NC(=O)c3ccc(C)c(/C=C/c4cnc5[nH]ccc5c4OC)c3)cc2C(F)(F)F)CC1`: the inhibition in assay [1] stood at 3%; in assay [2], 20.9%. Besides, the residual activity in [3] was 100%.

On to `CCN1CCN(Cc2ccc(NC(=O)c3ccc(C)c(Oc4ccnc5[nH]ccc45)c3)cc2C(F)(F)F)CC1`, for which, in [4], the residual activity was determined as 0.1%. The inhibition in [5] was 5%; in assay [6] it was -4.5%; in assay [7] it was 18.5%; in assay [8] it was 49.8%; in [9], 81%; in assay [10], 1.5%. The inhibition entry with RAW is “Dose-Dependent Effect”; in assay [12], 16.1%; in assay [14] it was 14.5%. Besides, the inhibition result in assay [11] and in assay [13] was “inactive” in each case. Moreover, in [15], the percent of control turned out to be 0.55%.

For `CNc1cc(Oc2cc(C(=O)Nc3cc(N4CCN(C)CC4)cc(C(F)(F)F)c3)ccc2C)ncn1`, the inhibition in assay [16] was -8.4%; in assay [17], 1.9%; in assay [18], 2%; in [19], 30.2%; in assay [20], 11.5%; in assay [21], -3.9%.
